From patent US20210045385A1, “PYRIDAZINONE-SUBSTITUTED KETOXIMES AS HERBICIDES” (FMC Corporation, priority 2018, published 2021)

Legend:
Type in all cases: in vivo
[1] = tested on: sedge umbrella (small-flower umbrella sedge, Cyperus difformis); experiment: Test D flooded paddy test, visual plant response rating; details: 250 g ai/ha, scale 0 to 100 (0 no effect, 100 complete control), 13 to 15 d
Procedure, shortened: (§1)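 Rating is visual, on a 0 (no effect) to 100 (complete control) scale versus controls, taken 13 to 15 d after treatment in a greenhouse. Treatment went into paddy water kept 3 cm above the soil surface, with plants at the 2-leaf stage.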

[2] = tested on: barnyardgrass (Echinochloa crus-galli); experiment: as above; details: 250 g ai/ha, scale 0 to 100 (0 no effect, 100 complete control), 13 to 15 d
Procedure, shortened: as §1

rice (Oryza sativa) = experiment: as above; details: 250 g ai/ha, scale 0 to 100 (0 no effect, 100 complete control), 13 to 15 d
Procedure, shortened: as §1

[3] = tested on: duck salad (Heteranthera limosa); experiment: as above; details: 250 g ai/ha, scale 0 to 100 (0 no effect, 100 complete control), 13 to 15 d
Procedure, shortened: as §1

[4] = tested on: barnyardgrass (Echinochloa crus-galli); experiment: Test C preemergence, visual plant response rating; details: Test C, 0 is no effect, 100 is complete control
Procedure, shortened: (§2)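 Visual injury on a 0 (no effect) to 100 (complete control) scale versus untreated controls, scored approximately 10 d after treatment under greenhouse conditions. Treatments used surfactant-containing non-phytotoxic solvent formulations, sprayed onto loam–sand soil preemergence or onto one- to two-leaf plants 2–10 cm tall postemergence.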

[5] = tested on: ragweed (common ragweed, Ambrosia artemisiifolia); experiment: Test C preemergence, visual plant response rating; details: Test C, 0 is no effect, 100 is complete control
Procedure, shortened: as §2

[6] = tested on: Italian ryegrass (Lolium mutiflorum); experiment: Test C preemergence, visual plant response rating; details: Test C, 0 is no effect, 100 is complete control
Procedure, shortened: as §2

[7] = tested on: pigweed (Amaranthus retroflexus); experiment: Test C preemergence, visual plant response rating; details: Test C, 0 is no effect, 100 is complete control
Procedure, shortened: as §2

[8] = tested on: foxtail, giant (giant foxtail, Setaria faberi); experiment: Test C preemergence, visual plant response rating; details: Test C, 0 is no effect, 100 is complete control
Procedure, shortened: as §2

kochia (Bassia scoparia) [9] = experiment: Test C preemergence, visual plant response rating; details: Test C, 0 is no effect, 100 is complete control
Procedure, shortened: as §2

[10] = tested on: barnyardgrass (Echinochloa crus-galli); experiment: Test C postemergence, visual plant response rating
Procedure, shortened: as §2

[11] = tested on: ragweed (common ragweed, Ambrosia artemisiifolia); experiment: Test C postemergence, visual plant response rating
Procedure, shortened: as §2

[12] = tested on: Italian ryegrass (Lolium mutiflorum); experiment: Test C postemergence, visual plant response rating
Procedure, shortened: as §2

[13] = tested on: pigweed (Amaranthus retroflexus); experiment: Test C postemergence, visual plant response rating
Procedure, shortened: as §2

[14] = tested on: foxtail, giant (giant foxtail, Setaria faberi); experiment: Test C postemergence, visual plant response rating
Procedure, shortened: as §2

kochia (Bassia scoparia) [15] = experiment: Test C postemergence, visual plant response rating
Procedure, shortened: as §2

[16] = tested on: blackgrass (Alopecurus myosuroides); experiment: Test C postemergence, visual plant response rating
Procedure, shortened: as §2

[17] = tested on: galium (catchweed bedstraw, Galium aparine); experiment: Test C postemergence, visual plant response rating
Procedure, shortened: as §2

[18] = tested on: wheat (Triticum aestivum); experiment: Test C postemergence, visual plant response rating
Procedure, shortened: as §2

corn (Zea mays) = experiment: Test C postemergence, visual plant response rating
Procedure, shortened: as §2

[19] = Test C, postemergence, 125 g ai/ha

| SMILES | Plant response rating, Sedge, Umbrella (Flood) [1] | Plant response rating, Barnyardgrass (Flood) [2] | Plant response rating, Rice (Flood) (rice (Oryza sativa)) | Plant response rating, Ducksalad (Flood) [3] | Barnyardgrass plant response rating (0 to 100 scale) ([4]; 31 g ai/ha) | Barnyardgrass plant response rating (0 to 100 scale) ([4]; 125 g ai/ha) | Ragweed plant response rating (0 to 100 scale) ([5]; 31 g ai/ha) | Ragweed plant response rating (0 to 100 scale) ([5]; 125 g ai/ha) | Ryegrass, Italian plant response rating (0 to 100 scale) ([6]; 31 g ai/ha) | Ryegrass, Italian plant response rating (0 to 100 scale) ([6]; 125 g ai/ha) | Pigweed plant response rating (0 to 100 scale) ([7]; 31 g ai/ha) | Pigweed plant response rating (0 to 100 scale) ([7]; 125 g ai/ha) | Foxtail, Giant plant response rating (0 to 100 scale) ([8]; 31 g ai/ha) | Foxtail, Giant plant response rating (0 to 100 scale) ([8]; 125 g ai/ha) | Kochia plant response rating (0 to 100 scale) (kochia (Bassia scoparia) [9]; 31 g ai/ha) | Kochia plant response rating (0 to 100 scale) (kochia (Bassia scoparia) [9]; 125 g ai/ha) | Barnyardgrass plant response rating (0 to 100 scale) ([10]; Postemergence, 31 g ai/ha) | Barnyardgrass plant response rating (0 to 100 scale) [10, 19] | Ragweed plant response rating (0 to 100 scale) ([11]; Postemergence, 31 g ai/ha) | Ragweed plant response rating (0 to 100 scale) [11, 19] | further results |
| --- | --- | --- | --- | --- | --- | --- | --- | --- | --- | --- | --- | --- | --- | --- | --- | --- | --- | --- | --- | --- | --- |
| CO/N=C(\c1cc(Cl)c(F)c(Cl)c1)c1c(O)c(C)nn(C)c1=O [Compound 290] | 0 | 0 | 0 | 0 | 0 | 0 | 20 | 90 | 0 | 40 | 10 | 30 | 0 | 20 | 0 | 0 | 0 | 20 | 20 | 50 | Ryegrass, Italian plant response rating (0 to 100 scale) ([12]; Postemergence, 31 g ai/ha): 0; Ryegrass, Italian plant response rating (0 to 100 scale) [12, 19]: 60; Pigweed plant response rating (0 to 100 scale) ([13]; Postemergence, 31 g ai/ha): 0; Pigweed plant response rating (0 to 100 scale) [13, 19]: 0; Foxtail, Giant plant response rating (0 to 100 scale) ([14]; Postemergence, 31 g ai/ha): 0; Foxtail, Giant plant response rating (0 to 100 scale) [14, 19]: 0; Kochia plant response rating (0 to 100 scale) (kochia (Bassia scoparia) [15]; Postemergence, 31 g ai/ha): 0; Kochia plant response rating (0 to 100 scale) (kochia (Bassia scoparia) [15]; [19]): 20; Blackgrass plant response rating (0 to 100 scale) ([16]; Postemergence, 31 g ai/ha): 0; Blackgrass plant response rating (0 to 100 scale) [16, 19]: 0; Galium plant response rating (0 to 100 scale) ([17]; Postemergence, 31 g ai/ha): 70; Galium plant response rating (0 to 100 scale) [17, 19]: 100; Wheat plant response rating (0 to 100 scale) ([18]; Postemergence, 31 g ai/ha): 0; Wheat plant response rating (0 to 100 scale) [18, 19]: 0; Corn plant response rating (0 to 100 scale) (corn (Zea mays); Postemergence, 31 g ai/ha): 0; Corn plant response rating (0 to 100 scale) (corn (Zea mays); [19]): 0 |
| C#CCON=C(c1cccc(OCC(F)(F)F)c1)c1c(O)c(C)nn(C)c1=O [Compound 197] | 0 | 0 | 0 | 0 | 0 | 0 | 0 | 0 | 0 | 20 | 0 | 20 | 0 | 10 | 0 | 0 | 0 | 10 | 0 | 0 | Ryegrass, Italian plant response rating (0 to 100 scale) ([12]; Postemergence, 31 g ai/ha): 0; Ryegrass, Italian plant response rating (0 to 100 scale) [12, 19]: 20; Pigweed plant response rating (0 to 100 scale) ([13]; Postemergence, 31 g ai/ha): 10; Pigweed plant response rating (0 to 100 scale) [13, 19]: 30; Foxtail, Giant plant response rating (0 to 100 scale) ([14]; Postemergence, 31 g ai/ha): 0; Foxtail, Giant plant response rating (0 to 100 scale) [14, 19]: 20; Kochia plant response rating (0 to 100 scale) (kochia (Bassia scoparia) [15]; Postemergence, 31 g ai/ha): 0; Kochia plant response rating (0 to 100 scale) (kochia (Bassia scoparia) [15]; [19]): 0; Blackgrass plant response rating (0 to 100 scale) ([16]; Postemergence, 31 g ai/ha): 0; Blackgrass plant response rating (0 to 100 scale) [16, 19]: 30; Galium plant response rating (0 to 100 scale) ([17]; Postemergence, 31 g ai/ha): 0; Galium plant response rating (0 to 100 scale) [17, 19]: 30; Wheat plant response rating (0 to 100 scale) ([18]; Postemergence, 31 g ai/ha): 0; Wheat plant response rating (0 to 100 scale) [18, 19]: 0; Corn plant response rating (0 to 100 scale) (corn (Zea mays); Postemergence, 31 g ai/ha): 0; Corn plant response rating (0 to 100 scale) (corn (Zea mays); [19]): 0 |
| Cc1nn(C)c(=O)c(/C(=N/OC(C)C)c2cccc3cc(Cl)ccc23)c1O [Compound 245] | 50 | 15 | 25 | 30 | 30 | 70 | 10 | 40 | 0 | 0 | 50 | 100 | 60 | 90 | 0 | 0 | 30 | 50 | 20 | 70 | Ryegrass, Italian plant response rating (0 to 100 scale) ([12]; Postemergence, 31 g ai/ha): 0; Ryegrass, Italian plant response rating (0 to 100 scale) [12, 19]: 0; Pigweed plant response rating (0 to 100 scale) ([13]; Postemergence, 31 g ai/ha): 70; Pigweed plant response rating (0 to 100 scale) [13, 19]: 90; Foxtail, Giant plant response rating (0 to 100 scale) ([14]; Postemergence, 31 g ai/ha): 30; Foxtail, Giant plant response rating (0 to 100 scale) [14, 19]: 80; Kochia plant response rating (0 to 100 scale) (kochia (Bassia scoparia) [15]; Postemergence, 31 g ai/ha): 0; Kochia plant response rating (0 to 100 scale) (kochia (Bassia scoparia) [15]; [19]): 20; Blackgrass plant response rating (0 to 100 scale) ([16]; Postemergence, 31 g ai/ha): 0; Blackgrass plant response rating (0 to 100 scale) [16, 19]: 0; Galium plant response rating (0 to 100 scale) ([17]; Postemergence, 31 g ai/ha): 70; Galium plant response rating (0 to 100 scale) [17, 19]: 90; Wheat plant response rating (0 to 100 scale) ([18]; Postemergence, 31 g ai/ha): 0; Wheat plant response rating (0 to 100 scale) [18, 19]: 0; Corn plant response rating (0 to 100 scale) (corn (Zea mays); Postemergence, 31 g ai/ha): 30; Corn plant response rating (0 to 100 scale) (corn (Zea mays); [19]): 30 |
